From patent publication US7358359B2, “Antibacterial agents” (University of Washington, priority 2003, dated 2008)
In brackets after ≈: the same amount, converted by molar mass. Read-outs that look alike come from different tables or passages of the source.

What was measured:
Format in all cases: cell-based
Enterobacter cloacae = assay: MIC vs enteric organisms: Enterobacter cloacae; conditions: E. clo., comparator antibacterials
Description: (§1) Bacterial isolates were cultivated from −70° C. frozen stocks by two consecutive overnight passages at 35° C. in ambient air on 5% blood agar (Remel, Lenexa, Kans.). Clinical isolates tested were from a collection composed of isolates collected during clinical trials and recent clinical isolates obtained from various geographically diverse hospitals in the US. Quality control and primary panel strains were from the American Type Culture Collection (ATCC; Rockville, Md.), with the exception of P. aeruginosa PAO200, a strain with a deletion of the mexABoprM genes that was received from Dr. H. Schweizer.
(§2) Minimum Inhibitory Concentrations (MICs) were determined by the broth microdilution method in accordance with the National Committee for Clinical Laboratory Standards (NCCLS) guidelines. In brief, organism suspensions were are adjusted to a 0.5 McFarland standard to yield a final inoculum between 3×10^5 and 7×10^5 colony-forming units (CFU)/mL. Drug dilutions and inocula were made in sterile, cation adjusted Mueller-Hinton Broth (Remel). An inoculum volume of 100 μl was added to wells containing 100 μl of broth with 2-fold serial dilutions of drug. All inoculated microdilution trays were incubated in ambient air at 35° C. for 18-24 hours. Following incubation, the lowest concentration of the drug that prevented visible growth was recorded as the MIC.

[1] = test system: Pseudomonas aeruginosa cystic fibrosis isolate 3317; assay: MIC vs cystic fibrosis isolate of P. aeruginosa 3317 (resistant to aztreonam); conditions: strain 3317, Aztr. R, comparator antibacterials
Description: as §1, §2

[2] = test system: non-CF clinical isolates of P. aeruginosa; assay: MIC vs non-CF clinical isolates of P. aeruginosa; conditions: Pseudomonas aeruginosa, comparator antibacterials
Description: as §1, with “Schweizer. […] Strain Z61 (ATCC 35151) is also hypersusceptible to antibacterials. It is thought that the hypersusceptibility of this strain is the result of increased permeability of its outer membrane (Angus B L et al, Antimicrobial Agents and Chemotherapy 1982 21,299-309: Outer membrane permeability in Pseudomonas aeruginosa: Comparison of a wild-type with an antibacterial-supersusceptible mutant).” for “Schweizer.”
as §2, with “MIC. Performance of the assay was monitored by the use of laboratory quality-control strains against tobramycin, that has a defined MIC spectrum, in accordance with NCCLS guidelines.” for “MIC.”

Burkholderia cepacia = assay: MIC vs non-fermenting organisms: Burkholderia cepacia; conditions: B. cepacia, comparator antibacterials
Description: as §1, §2

[3] = test system: Pseudomonas aeruginosa cystic fibrosis isolate 2196; assay: MIC vs cystic fibrosis isolate of P. aeruginosa 2196 (resistant to ciprofloxacin); conditions: strain 2196, Cipro R, comparator antibacterials
Description: as §1, §2

[4] = test system: Pseudomonas aeruginosa cystic fibrosis isolate 3232; assay: MIC vs cystic fibrosis isolate of P. aeruginosa 3232 (Ceftaz. R); conditions: strain 3232, Ceftaz. R, comparator antibacterials
[5] = test system: Acinetobacter calcoaceticus; assay: MIC vs non-fermenting organisms: Acinetobacter calcoaceticus; conditions: Acinet. calc., comparator antibacterials
Description: as §1, §2

Serratia marcescens = assay: MIC vs enteric organisms: Serratia marcescens; conditions: S. marc., comparator antibacterials
Description: as §1, §2

Proteus mirabilis = assay: MIC vs enteric organisms: Proteus mirabilis; conditions: P. mir., comparator antibacterials
Description: as §1, §2

[6] = test system: Pseudomonas aeruginosa cystic fibrosis isolate 3198; assay: MIC vs cystic fibrosis isolate of P. aeruginosa 3198 (sensitive to most antibacterials); conditions: strain 3198, Sensitive, comparator antibacterials
Description: as §1, §2

Escherichia coli = assay: MIC vs enteric organisms: Escherichia coli clinical isolates
Description: as §1, §2

Klebsiella oxytoca = assay: MIC vs enteric organisms: Klebsiella oxytoca; conditions: K. oxy., comparator antibacterials
Description: as §1, §2

[7] = test system: Pseudomonas aeruginosa cystic fibrosis isolate 3224; assay: MIC vs cystic fibrosis isolate of P. aeruginosa 3224; conditions: strain 3224, Tobra R, comparator antibacterials
Description: as §1, §2

Alcaligenes xylosoxidans = assay: MIC vs non-fermenting organisms: Alcaligenes xylosoxidans; conditions: Achromobacter xylosoxidans; Alcal. xyl; comparator antibacterials
Description: as §1, §2

[8] = test system: Pseudomonas aeruginosa cystic fibrosis isolate 3206; assay: microbe, parasite or virus in culture; conditions: strain 3206, MDR, comparator antibacterials, read-out: MIC
Description: as §1, §2

[9] = test system: Pseudomonas aeruginosa cystic fibrosis isolate 1145; assay: microbe, parasite or virus in culture; conditions: strain 1145, MDR, comparator antibacterials, read-out: MIC
Description: as §1, §2

Klebsiella pneumoniae = assay: MIC vs enteric organisms: Klebsiella pneumoniae; conditions: K. pneu., comparator antibacterials
Description: as §1, §2

[10] = test system: Pseudomonas aeruginosa cystic fibrosis isolate 3236; assay: MIC vs cystic fibrosis isolate of P. aeruginosa 3236 (sensitive to most antibacterials); conditions: strain 3236, Sensitive, comparator antibacterials
Description: as §1, §2

Enterobacter aerogenes = assay: MIC vs enteric organisms: Enterobacter aerogenes; conditions: Klebsiella aerogenes; E. aer.; comparator antibacterials
Description: as §1, §2

[11] = test system: Stenotrophomonas maltophilia; assay: MIC vs non-fermenting organisms: Stenotrophomonas maltophilia; conditions: S. malt., comparator antibacterials
Description: as §1, §2

[12] = Burkholderia cepacia, read-out: MIC
[13] = Escherichia coli, E. coli 2788, comparator antibacterials, read-out: MIC
[14] = Stenotrophomonas maltophilia, read-out: MIC
[15] = E. coli 1619, comparator antibacterials
[16] = Escherichia coli, E. coli 1619, comparator antibacterials, read-out: MIC

With CO/N=C(\C(=O)N[C@@H]1C(=O)N2C(C(=O)[O-])=C(C[N+]3(C)CCCC3)CS[C@H]12)c1csc(N)n1 [Cefepime, cefepime, reference compound] the MIC (Enterobacter cloacae) was ≤ 0.13 µg/mL, the MIC [1] was 8 µg/mL (≈ 16.6 µM) and the MIC ([2]; P. aer 12307) was 2 µg/mL (≈ 4.16 µM). For the same compound, the MIC ([2]; P. aer psa-6b) was 8 µg/mL (≈ 16.6 µM), the MIC (Burkholderia cepacia) was 16 µg/mL (≈ 33.3 µM) and the MIC (Burkholderia cepacia; [12]) was 32 µg/mL (≈ 66.6 µM). The MIC [3] was 2 µg/mL (≈ 4.16 µM), the MIC [4] was 2 µg/mL (≈ 4.16 µM) and the MIC [5] was 8 µg/mL (≈ 16.6 µM). The MIC (Serratia marcescens) was ≤ 0.13 µg/mL, the MIC (Proteus mirabilis) was ≤ 0.13 µg/mL and the MIC [6] was 4 µg/mL (≈ 8.32 µM). The MIC (Escherichia coli; [13]) was ≤ 0.13 µg/mL, the MIC (Klebsiella oxytoca) was ≤ 0.13 µg/mL and the MIC [7] was 8 µg/mL (≈ 16.6 µM). The MIC (Alcaligenes xylosoxidans) was 8 µg/mL (≈ 16.6 µM), the MIC [8] was 32 µg/mL (≈ 66.6 µM) and the MIC [9] was > 128 µg/mL. It also gave an MIC (Klebsiella pneumoniae) of 8 µg/mL (≈ 16.6 µM) and an MIC [10] of 2 µg/mL (≈ 4.16 µM).
For C[C@@H](O)[C@H]1C(=O)N2C(C(=O)O)=C(S[C@@H]3CN[C@H](C(=O)N(C)C)C3)[C@H](C)[C@H]12 [Meropenem, meropenem, reference compound], the MIC (Enterobacter aerogenes) was 2 µg/mL (≈ 5.22 µM), the MIC (Enterobacter cloacae) was ≤ 0.06 µg/mL and the MIC ([2]; P. aer 12307) was 0.5 µg/mL (≈ 1.3 µM). The MIC ([2]; P. aer psa-6b) was 0.25 µg/mL (≈ 0.652 µM), the MIC (Burkholderia cepacia; [12]) was 4 µg/mL (≈ 10.4 µM) and the MIC [5] was 4 µg/mL (≈ 10.4 µM). For the same compound, the MIC (Serratia marcescens) was 0.13 µg/mL (≈ 0.339 µM), the MIC (Proteus mirabilis) was 0.5 µg/mL (≈ 1.3 µM) and the MIC [11, 14] was 64 µg/mL (≈ 167 µM). The MIC (Escherichia coli; [15]) was 0.13 µg/mL (≈ 0.339 µM), the MIC (Escherichia coli; [16]) was 0.25 µg/mL (≈ 0.652 µM) and the MIC (Escherichia coli; [13]) was ≤ 0.06 µg/mL. The MIC (Klebsiella oxytoca) was ≤ 0.06 µg/mL, the MIC (Alcaligenes xylosoxidans) was 0.5 µg/mL (≈ 1.3 µM) and the MIC (Klebsiella pneumoniae) was 0.13 µg/mL (≈ 0.339 µM).
NC[C@H]1O[C@H](O[C@H]2[C@H](O)[C@@H](O[C@H]3O[C@H](CO)[C@@H](O)[C@H](N)[C@H]3O)[C@H](N)C[C@@H]2N)[C@H](N)C[C@@H]1O [Tobramycin, tobramycin, reference compound] was tested, and the MIC (Enterobacter aerogenes) was 64 µg/mL (≈ 137 µM), the MIC (Enterobacter cloacae) was 0.06 µg/mL (≈ 0.128 µM) and the MIC [1] was 2 µg/mL (≈ 4.28 µM). The MIC ([2]; P. aer 12307) was 8 µg/mL (≈ 17.1 µM), the MIC ([2]; P. aer psa-6b) was 2 µg/mL (≈ 4.28 µM) and the MIC (Burkholderia cepacia) was > 128 µg/mL. The MIC (Burkholderia cepacia; [12]) was 64 µg/mL (≈ 137 µM), the MIC [3] was 2 µg/mL (≈ 4.28 µM) and the MIC [4] was 1 µg/mL (≈ 2.14 µM). It also gave an MIC [5] of 2 µg/mL (≈ 4.28 µM), an MIC (Serratia marcescens) of 2 µg/mL (≈ 4.28 µM) and an MIC (Proteus mirabilis) of 2 µg/mL (≈ 4.28 µM). It also gave an MIC [11, 14] of 0.5 µg/mL (≈ 1.07 µM), an MIC [6] of 2 µg/mL (≈ 4.28 µM) and an MIC (Klebsiella oxytoca) of 1 µg/mL (≈ 2.14 µM). For the same compound, the MIC [7] was 64 µg/mL (≈ 137 µM), the MIC (Alcaligenes xylosoxidans) was 64 µg/mL (≈ 137 µM) and the MIC [9] was 8 to 32 µg/mL (≈ 17.1 to 68.4 µM). For the same compound, the MIC (Klebsiella pneumoniae) was 64 µg/mL (≈ 137 µM) and the MIC [10] was 0.5 µg/mL (≈ 1.07 µM).
With CC(C)(O/N=C(\C(=O)N[C@@H]1C(=O)N2C(C(=O)[O-])=C(C[n+]3ccccc3)CS[C@H]12)c1csc(N)n1)C(=O)O [Ceftazidime, ceftazidime, reference compound] the MIC (Enterobacter aerogenes) was 32 µg/mL (≈ 58.5 µM), the MIC (Enterobacter cloacae) was 0.25 µg/mL (≈ 0.457 µM) and the MIC [1] was 4 µg/mL (≈ 7.32 µM). The MIC ([2]; P. aer 12307) was 4 µg/mL (≈ 7.32 µM), the MIC ([2]; P. aer psa-6b) was 64 µg/mL (≈ 117 µM) and the MIC (Burkholderia cepacia) was 4 µg/mL (≈ 7.32 µM). It also gave an MIC (Burkholderia cepacia; [12]) of 8 µg/mL (≈ 14.6 µM), an MIC [3] of 2 µg/mL (≈ 3.66 µM) and an MIC [4] of 64 µg/mL (≈ 117 µM). The MIC [5] was 16 µg/mL (≈ 29.3 µM), the MIC (Serratia marcescens) was 0.25 µg/mL (≈ 0.457 µM) and the MIC (Proteus mirabilis) was ≤ 0.13 µg/mL. The MIC [11, 14] was 1 µg/mL (≈ 1.83 µM), the MIC [6] was 2 µg/mL (≈ 3.66 µM) and the MIC (Escherichia coli; Escherichia coli) was > 128 µg/mL. It also gave an MIC (Escherichia coli; [13]) of 0.25 µg/mL (≈ 0.457 µM), an MIC (Klebsiella oxytoca) of 0.25 µg/mL (≈ 0.457 µM) and an MIC [7] of 2 µg/mL (≈ 3.66 µM). For the same compound, the MIC (Alcaligenes xylosoxidans) was 1 µg/mL (≈ 1.83 µM), the MIC [8] was > 128 µg/mL and the MIC [9] was > 128 µg/mL. The MIC (Klebsiella pneumoniae) was 8 µg/mL (≈ 14.6 µM) and the MIC [10] was 0.25 µg/mL (≈ 0.457 µM).
C[C@H]1[C@H](NC(=O)/C(=N\OC(C)(C)C(=O)O)c2csc(N)n2)C(=O)N1S(=O)(=O)O [Aztreonam, aztreonam, reference compound] was tested, and the MIC (Enterobacter cloacae) was ≤ 0.13 µg/mL, the MIC [1] was 64 µg/mL (≈ 147 µM) and the MIC ([2]; P. aer 12307) was 16 µg/mL (≈ 36.7 µM). The MIC ([2]; P. aer psa-6b) was 32 µg/mL (≈ 73.5 µM), the MIC (Burkholderia cepacia; [12]) was 64 µg/mL (≈ 147 µM) and the MIC [3] was 1 µg/mL (≈ 2.3 µM). For the same compound, the MIC [4] was 1 µg/mL (≈ 2.3 µM), the MIC [5] was 32 µg/mL (≈ 73.5 µM) and the MIC (Serratia marcescens) was ≤ 0.13 µg/mL. The MIC (Proteus mirabilis) was ≤ 0.13 µg/mL, the MIC [11] was 16 µg/mL (≈ 36.7 µM) and the MIC [6] was 1 µg/mL (≈ 2.3 µM). The MIC (Escherichia coli; [15]) was 64 µg/mL (≈ 147 µM), the MIC (Escherichia coli; [16]) was 128 µg/mL (≈ 294 µM) and the MIC (Escherichia coli; [13]) was ≤ 0.13 µg/mL. The MIC (Klebsiella oxytoca) was 0.5 µg/mL (≈ 1.15 µM), the MIC [7] was 1 µg/mL (≈ 2.3 µM) and the MIC (Alcaligenes xylosoxidans) was 32 µg/mL (≈ 73.5 µM). For the same compound, the MIC [8] was > 128 µg/mL, the MIC [9] was > 128 µg/mL and the MIC (Klebsiella pneumoniae) was 2 µg/mL (≈ 4.59 µM). For the same compound, the MIC [10] was 0.5 µg/mL (≈ 1.15 µM).
